# Counter-ions that a name gives are not always drawn.
# Legend:
# PDE4 (cAMP-specific) = PDE4 (cAMP-specific) (Homo sapiens, UniProt Q07343); assay: Inhibition of PDE4 activity, Method A (radioactive cAMP hydrolysis, cytosol of human PMNL); assay type: biochemical; conditions: cAMP substrate, 1 μM motapizone
# PDE3 (cGMP-inhibited) = target: T1, PDE3 (cGMP-inhibited) (Homo sapiens, UniProt Q14432); assay: Inhibition of PDE3 activity, Method A (homogenates of human platelets); assay type: biochemical
# T1 construct: investigated in homogenates of human platelets; from tissue; host or cells: homogenates of human platelets
# T1 sequence (Q14432 whole entry): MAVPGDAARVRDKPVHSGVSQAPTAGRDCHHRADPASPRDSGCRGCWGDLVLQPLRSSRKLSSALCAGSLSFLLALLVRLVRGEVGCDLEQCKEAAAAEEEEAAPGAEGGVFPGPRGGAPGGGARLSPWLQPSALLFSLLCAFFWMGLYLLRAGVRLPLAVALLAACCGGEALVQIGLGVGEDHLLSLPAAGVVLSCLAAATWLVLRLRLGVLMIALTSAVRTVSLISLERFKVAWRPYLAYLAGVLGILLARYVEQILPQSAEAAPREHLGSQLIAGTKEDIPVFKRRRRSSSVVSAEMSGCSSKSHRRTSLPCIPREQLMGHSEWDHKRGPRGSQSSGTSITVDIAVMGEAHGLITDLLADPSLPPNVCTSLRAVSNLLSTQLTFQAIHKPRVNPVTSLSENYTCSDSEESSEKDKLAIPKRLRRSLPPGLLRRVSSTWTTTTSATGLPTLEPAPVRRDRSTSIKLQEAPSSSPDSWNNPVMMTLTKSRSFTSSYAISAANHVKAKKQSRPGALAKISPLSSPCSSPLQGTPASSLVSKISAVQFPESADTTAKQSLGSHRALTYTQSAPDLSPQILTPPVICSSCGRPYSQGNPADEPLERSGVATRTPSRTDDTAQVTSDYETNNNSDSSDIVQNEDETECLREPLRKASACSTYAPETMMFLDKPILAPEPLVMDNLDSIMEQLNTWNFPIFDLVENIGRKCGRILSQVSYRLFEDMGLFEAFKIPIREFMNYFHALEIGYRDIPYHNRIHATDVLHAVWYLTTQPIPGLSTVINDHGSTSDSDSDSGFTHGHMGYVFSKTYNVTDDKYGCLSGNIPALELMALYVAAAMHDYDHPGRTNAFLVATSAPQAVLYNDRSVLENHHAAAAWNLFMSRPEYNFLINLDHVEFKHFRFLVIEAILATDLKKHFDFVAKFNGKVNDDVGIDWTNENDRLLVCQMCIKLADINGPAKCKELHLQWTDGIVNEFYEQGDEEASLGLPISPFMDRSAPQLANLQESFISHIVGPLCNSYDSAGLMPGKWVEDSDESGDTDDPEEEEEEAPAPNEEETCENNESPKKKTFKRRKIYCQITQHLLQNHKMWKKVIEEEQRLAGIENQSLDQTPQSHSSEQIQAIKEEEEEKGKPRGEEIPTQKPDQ
# Method: The PDE activity was determined according to Thompson et al. (Adv Cycl Nucl Res 10: 69-92, 1979) with some modifications (Bauer and Schwabe, Naunyn-Schmiedeberg's Arch Pharmacol 311: 193-198, 1980). The test samples contained 20 mM Tris (pH 7.4), 5 mM MgCl2, 0.5 μM cAMP or cGMP, [^3H]cAMP or [^3H]cGMP (about 30 000 cpm/sample), the PDE isoenzyme-specific additives described in greater detail below, the indicated concentrations of inhibitor and an aliquot of the enzyme solution in a total sample volume of 200 μl. Dilution series of the compounds according to the invention were prepared in DMSO and further diluted in the samples [1:100 (v/v)], to give the desired end concentration of the inhibitors at a DMSO concentration of 1% (v/v), which for its part has only a minute effect on PDE activity.
# After preincubation at 37° C. for 5 minutes, the reaction was started by addition of the substrate (cAMP or cGMP). The samples were incubated at 37° C. for a further 15 min. The reaction was terminated by addition of 50 μl 0.2 N HCl. After cooling on ice for 10 minutes and addition of 25 μg 5′-nucleotidase (snake venom from Crotalus atrox), the mixture was again incubated at 37° C. for 10 mih and the samples were then applied to QAE Sephadex A-25 columns (sample volume 1 ml). The columns were eluted with 2 ml of 30 mM ammonium formate (pH 6.0). The radioactivity of the eluate was measured and corrected by the corresponding blank values (measured in the presence of denatured protein); the blank values were less than 5% of the total radioactivity. In no case did the proportion of hydrolyzed nucleotide exceed 30% of the original substrate concentration.
# PDE3 (cGMP-inhibited) was investigated in homogenates of human platelets (see Schudt et al., Biochem Pharmacol 1991: 42, 153-162) using cAMP or cGMP as substrate.
# The IC50 values were determined from the concentration-inhibition curves by nonlinear regression.
# PDE4B2 = target: T2, PDE4B2 (Homo sapiens, UniProt Q07343); assay: Inhibition of recombinant PDE4B2, Method B (SPA test); assay type: biochemical; conditions: 0.5 μM cAMP, read-out: PDE4 Inhibition [measured as −logIC50 (mol/l)] (converted)
# T2 construct: made in house; host or cells: baculovirus, SF21 insect cells (virus made in SF9); 1000 x g supernatant of the homogenate
# T2 sequence (Q07343 1-564 isoform Q07343-2): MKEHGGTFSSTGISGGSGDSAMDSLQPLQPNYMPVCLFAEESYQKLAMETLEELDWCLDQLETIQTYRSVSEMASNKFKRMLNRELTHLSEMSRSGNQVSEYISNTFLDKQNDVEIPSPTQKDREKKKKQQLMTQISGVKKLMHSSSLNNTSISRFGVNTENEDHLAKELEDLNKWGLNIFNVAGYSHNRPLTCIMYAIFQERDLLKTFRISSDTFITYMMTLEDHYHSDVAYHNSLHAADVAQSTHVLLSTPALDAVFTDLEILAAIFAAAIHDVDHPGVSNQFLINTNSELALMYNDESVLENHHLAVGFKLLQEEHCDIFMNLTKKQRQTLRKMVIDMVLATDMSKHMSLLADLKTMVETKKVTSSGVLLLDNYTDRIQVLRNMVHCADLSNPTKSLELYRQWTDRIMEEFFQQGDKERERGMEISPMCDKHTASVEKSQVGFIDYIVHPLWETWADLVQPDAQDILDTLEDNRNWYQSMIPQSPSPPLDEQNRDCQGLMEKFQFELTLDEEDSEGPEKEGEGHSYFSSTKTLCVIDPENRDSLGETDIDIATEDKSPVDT
# Method: The PDE4B2 (GB no. M97515) was a gift of Prof. M. Conti (Stanford University, USA). It was amplified from the original plasmid (pCMV5) via PCR with primers Rb9 (5′-[…]-3′) and Rb10 (5′-[…]-3′) and cloned into the pCR-Bac vector (Invitrogen, Groningen, NL).
# (§1) The recombinant baculovirus was prepared by means of homologous recombination in SF9 insect cells. The expression plasmids were cotransfected with Bac-N-Blue (Invitrogen, Groningen, NL) or Baculo-Gold DNA (Pharmingen, Hamburg) using a standard protocol (Pharmingen, Hamburg). Wt virus-free recombinant virus supernatants were selected using plaque assay methods. After that, high-titre virus supernatants were prepared by amplifying 3 times. PDEs were expressed in SF21 cells by infecting 2×10^6 cells/ml with an MOI (multiplicity of infection) between 1 and 10 in serum-free SF900 medium (Life Technologies, Paisley, UK). The cells were cultured at 28° C. for 48-72 hours, after which they were pelleted for 5-10 min at 1000 g and 4° C.
# (§2) The SF21 insect cells were resuspended, at a concentration of approx. 10^7 cells/ml, in ice-cold (4° C.) homogenization buffer (20 mM Tris, pH 8.2, containing the following additions: 140 mM NaCl, 3.8 mM KCl, 1 mM EGTA, 1 mM MgCl2, 10 mM β-mercaptoethanol, 2 mM benzamidine, 0.4 mM Pefablock, 10 μM leupeptin, 10 μM pepstatin A, 5 μM trypsin inhibitor) and disrupted by ultrasonication. The homogenate was then centrifuged for 10 min at 1000× g and the supernatant was stored at −80° C. until subsequent use (see below). The protein content was determined by the Bradford method (BioRad, Munich) using BSA as the standard.
# PDE3A1 and PDE4B2 activities were inhibited by the said compounds in a modified SPA (scintillation proximity assay) test, supplied by Amersham Biosciences (see procedural instructions “phosphodiesterase [3H]cAMP SPA enzyme assay, code TRKQ 7090”), carried out in 96-well microtitre plates (MTP's). The test volume is 100 μl and contains 20 mM Tris buffer (pH 7.4), 0.1 mg of BSA (bovine serum albumin)/ml, 5 mM Mg^2+, 0.5 μM cAMP (including about 50,000 cpm of [3H]cAMP), 1 μl of the respective substance dilution in DMSO and sufficient recombinant PDE (1000× g supernatant, see above) to ensure that 10-20% of the cAMP is converted under the said experimental conditions. […] After a preincubation of 5 min at 37° C., the reaction is started by adding the substrate (cAMP) and the assays are incubated for a further 15 min; after that, they are stopped by adding SPA beads (50 μl). In accordance with the manufacturer's instructions, the SPA beads had previously been resuspended in water, but were then diluted 1:3 (v/v) in water; the diluted solution also contains 3 mM IBMX to ensure a complete PDE activity stop. After the beads have been sedimented (>30 min), the MTP's are analyzed in commercially available luminescence detection devices. The corresponding IC50 values of the compounds for the inhibition of PDE activities are determined from the concentration-effect curves by means of non-linear regression.
# PDE3A1 = target: T3, PDE3A1 (Homo sapiens, UniProt Q14432); assay: Inhibition of recombinant PDE3A1, Method B (SPA test); assay type: biochemical; conditions: 0.5 μM cAMP, read-out: PDE3 Inhibition [measured as −logIC50 (mol/l)] (converted)
# T3 construct: The whole ORF was subcloned into pBacPak9 (Clontech, Palo Alto) using EcoRi; made in house; host or cells: baculovirus (pBacPak9), SF21 insect cells (virus made in SF9); 1000 x g supernatant of the homogenate
# T3 sequence (Q14432 whole entry): as the sequence (Q14432 whole entry) above
# Description: The cDNA for PDE3A1 (GB no. U36798) was isolated in 2 steps using PCR. A 3′ terminal cDNA fragment of PDE3A1 was amplified from fat cells cDNA (Clontech, Palo Alto) using primers OZ 458 (5′-[…]-3′) and OZ 457 (5′-[…]-3′). The 5′ terminal cDNA fragment of PDE3A1 was amplified from Placenta cDNA (Clontech, Palo Alto) using primers OZ 455 (5′-[…]-3′) and OZ 456 (5′-[…]-3′). The PCR products were cloned into pCR2.1-Topo (Invitrogen, Groningen, NL) under standard conditions (the manufacturer's instructions). The 3′ fragment was cut out with HindII and cloned into the HindII site of the construct carrying the 5′ fragment. The whole ORF was subcloned into pBacPak9 (Clontech, Palo Alto) using EcoRi. Aminoacid 12 is Aspartic Acid like in sequence GB no. AJ005036, aa 69 and aa 110 are respective Serine and Glycine like in both sequences GB no. AJ005036 and GB no. M91667.
# as §1, §2
# PDE3A1 and PDE4B2 activities were inhibited by the said compounds in a modified SPA (scintillation proximity assay) test, supplied by Amersham Biosciences (see procedural instructions “phosphodiesterase [3H]cAMP SPA enzyme assay, code TRKQ 7090”), carried out in 96-well microtitre plates (MTP's). The test volume is 100 μl and contains 20 mM Tris buffer (pH 7.4), 0.1 mg of BSA (bovine serum albumin)/ml, 5 mM Mg^2+, 0.5 μM cAMP (including about 50,000 cpm of [3H]cAMP), 1 μl of the respective substance dilution in DMSO and sufficient recombinant PDE (1000× g supernatant, see above) to ensure that 10-20% of the cAMP is converted under the said experimental conditions. […] After a preincubation of 5 min at 37° C., the reaction is started by adding the substrate (cAMP) and the assays are incubated for a further 15 min; after that, they are stopped by adding SPA beads (50 μl). […] After the beads have been sedimented (>30 min), the MTP's are analyzed in commercially available luminescence detection devices. The corresponding IC50 values of the compounds for the inhibition of PDE activities are determined from the concentration-effect curves by means of non-linear regression.
# Chain of PDE4 (cAMP-specific) (Q07343 whole entry): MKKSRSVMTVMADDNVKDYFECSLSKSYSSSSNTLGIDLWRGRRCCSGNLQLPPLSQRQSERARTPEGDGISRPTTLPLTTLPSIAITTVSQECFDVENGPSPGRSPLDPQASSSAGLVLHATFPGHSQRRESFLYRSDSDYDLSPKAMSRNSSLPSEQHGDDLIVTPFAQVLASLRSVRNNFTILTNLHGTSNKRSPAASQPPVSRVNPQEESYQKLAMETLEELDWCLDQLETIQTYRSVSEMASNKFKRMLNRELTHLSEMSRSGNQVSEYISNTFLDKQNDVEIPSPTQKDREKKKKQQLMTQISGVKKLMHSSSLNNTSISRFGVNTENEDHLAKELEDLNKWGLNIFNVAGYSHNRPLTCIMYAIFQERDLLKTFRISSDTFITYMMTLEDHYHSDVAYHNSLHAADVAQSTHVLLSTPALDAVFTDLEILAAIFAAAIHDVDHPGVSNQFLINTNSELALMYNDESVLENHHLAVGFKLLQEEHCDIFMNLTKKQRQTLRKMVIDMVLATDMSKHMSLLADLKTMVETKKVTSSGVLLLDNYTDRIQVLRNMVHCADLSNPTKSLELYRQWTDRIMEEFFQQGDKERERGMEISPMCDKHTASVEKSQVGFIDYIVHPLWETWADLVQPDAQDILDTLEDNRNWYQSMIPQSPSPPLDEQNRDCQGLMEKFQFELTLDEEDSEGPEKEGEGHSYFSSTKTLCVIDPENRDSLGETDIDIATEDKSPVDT
Compound,PDE4 Inhibition [measured as −logIC50 (mol/l)] (PDE4 (cAMP-specific)),PDE3 Inhibition [measured as −logIC50 (mol/l)] (PDE3 (cGMP-inhibited)),IC50 (PDE4B2) [µM],IC50 (PDE3A1) [µM],melting point [°C]
COc1ccc(OC)c(S(=O)(=O)N2CCC(N3N=C(c4ccc(OC)c(OC)c4)CCC3=O)CC2)c1 [Compound 17],7.8 -log(mol/l),6.8 −log(mol/l) (pIC50),–,–,–
"COc1ccc(C2=NN(C3CCN(S(=O)(=O)c4cccs4)CC3)C(=O)CC2)cc1OC [Compound 19, 6-(3,4-Dimethoxy-phenyl)-2-[1-(thiophene-2-sulfonyl)-piperidin-4-yl]-45-dihydro-2H-pyridazin-3-one]",8.3 -log(mol/l),6.9 −log(mol/l) (pIC50),–,–,–
"COc1ccc(C2=NN(C3CCN(C(=O)c4ccccc4)CC3)C(=O)CC2)cc1OC [Compound 23, 6-(3,4-Dimethoxy-phenyl)-2-[1-(1-phenyl-methanoyl)-piperidin-4-yl]-4,5-dihydro-2H-pyridazin-3-one]",–,–,0.00794,0.126,152 to 154
"COc1ccc(C2=NN(C3CCN(C(=O)c4c(Cl)cc(Cl)cc4Cl)CC3)C(=O)CC2)cc1OC [Compound 25, 6-(3,4-Dimethoxy-phenyl)-2-{1-[1-(2,4,6-trichloro-phenyl)-methanoyl]-piperidin-4-yl}-4,5-dihydro-2H-pyridazin-3-one]",–,–,0.00251,0.0158,156 to 159

# Further lines, results first:
PDE4 Inhibition [measured as −logIC50 (mol/l)] (PDE4 (cAMP-specific)),PDE3 Inhibition [measured as −logIC50 (mol/l)] (PDE3 (cGMP-inhibited)),IC50 (PDE4B2) [µM],IC50 (PDE3A1) [µM],melting point [°C],Compound
–,–,0.02,> 10,194 to 199,"COc1ccc(C2=NN(C3CCN(CC(=O)N4CCN(C)CC4)CC3)C(=O)CC2)cc1OC.Cl.Cl [Compound 28, 6-(3,4-Dimethoxy-phenyl)-2-{1-[2-(4-methyl-piperazin-1-yl)-2-oxo-ethyl]-piperidin-4-yl}-4,5-dihydro-2H-pyridazin-3-one dihydrochloride]"
–,–,0.0398,3.98,126 to 127,"COc1ccc(C2=NN(C3CCN(C(=O)CN4CCN(C(c5ccccc5)c5ccccc5)CC4)CC3)C(=O)CC2)cc1OC.Cl.Cl [Compound 31, 6-(3,4-Dimethoxy-phenyl)-2-(1-{2-[4-(1,1-diphenyl-methyl)-piperazin-1-yl]-ethanoyl}-piperidin-4-yl)-4,5-dihydro-2H-pyridazin-3-one dihydrochloride]"
–,–,0.0158,3.16,–,"COc1ccc(C2=NN(C3CCN(C(=O)CN4CCN(c5ccncc5)CC4)CC3)C(=O)CC2)cc1OC [Compound 29, 6-(3,4-Dimethoxy-phenyl)-2-{1-[2-(4-pyridin-4-yl-piperazin-1-yl)-ethanoyl]-piperidin-4-yl}-4,5-dihydro-2H-pyridazin-3-one dihydrochloride]"

# From US20060167001A1, “Pyridazinone-derivatives as pde4 inhibitors” (priority 2002, published 2006)
